Measurements published in publication PMC13052863 (PLOS One, 2026).
Like-named read-outs stand apart in the source and are kept apart here.

How the values were obtained:
D. melanogaster eIF4A wt = biological target: T1, D. melanogaster eIF4A wt (Drosophila melanogaster, UniProt Q02748); format: binding; details: S3 Table
T1 construct: made in house; host or cells: E. coli BL21 (DE3)

[1] = system: eIF4A-dependent firefly luciferase translation in S2 cells; format: cell-based, D. melanogaster; details: t = 24 h
[2] = biological target: T2, D. melanogaster eIF4A mutant Y160L (Drosophila melanogaster, UniProt Q02748, Y160L); format: binding; details: S3 Table, D. melanogaster mut.
T2 construct: made in house; host or cells: E. coli BL21 (DE3)
T2 sequence (Q02748 whole entry Y160L): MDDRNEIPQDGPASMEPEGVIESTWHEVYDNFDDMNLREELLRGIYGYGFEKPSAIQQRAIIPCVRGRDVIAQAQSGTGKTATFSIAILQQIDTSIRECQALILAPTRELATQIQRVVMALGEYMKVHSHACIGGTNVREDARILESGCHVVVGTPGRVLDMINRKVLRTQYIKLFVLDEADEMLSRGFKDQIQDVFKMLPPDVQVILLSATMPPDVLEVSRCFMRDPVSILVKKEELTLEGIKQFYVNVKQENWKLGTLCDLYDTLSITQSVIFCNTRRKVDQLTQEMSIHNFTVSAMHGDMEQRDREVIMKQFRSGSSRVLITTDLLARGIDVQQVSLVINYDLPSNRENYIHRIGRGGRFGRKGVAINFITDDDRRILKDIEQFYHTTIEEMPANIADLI

in vitro [3] = details: Drosophila melanogaster, CC50, S2 cells, WST-1
[4] = system: A. suspensa eIF4A mutant Y160L; details: S3 Table, A. suspensa mut.
[5] = system: eIF4A-dependent firefly luciferase translation in Aag2 cells; format: cell-based, Ae. aegypti; details: t = 48 h
RVFV Clone 13 = format: cell-based, Rift Valley fever virus; details: A549 cells pretreated with 50 nM silvestrol, MOI 0.1, 18 h post-infection, relative to DMSO controls
Aag2 cells = assay: cells; details: Aedes aegypti, read-out: IC50 (best-fit value, 4PL dose-viability curve)
S2 cells = assay: cells; details: Drosophila melanogaster, read-out: IC50 (best-fit value, 4PL dose-viability curve)
RVFV MP-12 = format: cell-based, Rift Valley fever virus; details: A549 cells pretreated with 50 nM silvestrol, MOI 0.1, 18 h post-infection, relative to DMSO controls
A549 cells = details: 50–100 nM, WST-1
in vitro [6] = details: Aedes aegypti, CC50, Aag2 cells, WST-1
[7] = system: Ae. aegypti eIF4A mutant H161L; details: for reduction in thermal shift with the mutant compared to the wt protein: Ae. aegypti eIF4A, (GA)5 10mer; for ∆Tm: S3 Table, Ae. aegypti mut.
[8] = silvestrol in the sub-CC50 range, vs DMSO and (AC)15 control

T1 sequence (Q02748 whole entry): as the sequence (Q02748 whole entry Y160L) above, with L160Y counted along it

| SMILES | ∆Tm (D. melanogaster eIF4A wt; RNA oligo (AC)5) | ∆Tm (D. melanogaster eIF4A wt; RNA oligo (AG)5) | ∆Tm (D. melanogaster eIF4A wt; RNA oligo (GA)5) | ∆Tm (D. melanogaster eIF4A wt; RNA oligo (UA)5) | ∆Tm (D. melanogaster eIF4A wt; RNA oligo (UC)5) | ∆Tm (D. melanogaster eIF4A wt; RNA oligo (UG)5) | ∆Tm ([2]; RNA oligo (AC)5) | ∆Tm ([2]; RNA oligo (AG)5) | ∆Tm ([2]; RNA oligo (GA)5) | ∆Tm ([2]; RNA oligo (UC)5) | ∆Tm ([2]; RNA oligo (UG)5) | ∆Tm ([4]; RNA oligo (AC)5) | ∆Tm ([4]; RNA oligo (GA)5) | ∆Tm ([4]; RNA oligo (UA)5) | ∆Tm ([4]; RNA oligo (UC)5) | ∆Tm ([4]; RNA oligo (UG)5) | reduction in thermal shift with the mutant compared to the wt protein [7] | ∆Tm ([7]; RNA oligo (AC)5) | ∆Tm ([7]; RNA oligo (AG)5) | ∆Tm ([7]; RNA oligo (GA)5) | further results |
| --- | --- | --- | --- | --- | --- | --- | --- | --- | --- | --- | --- | --- | --- | --- | --- | --- | --- | --- | --- | --- | --- |
| COC(=O)[C@H]1[C@@H](O)[C@@]2(O)c3c(OC)cc(O[C@@H]4O[C@@H]([C@H](O)CO)CO[C@H]4OC)cc3O[C@@]2(c2ccc(OC)cc2)[C@@H]1c1ccccc1 [silvestrol] | 1.02 °C | 9.55 °C | 9.16 °C | -0.09 °C | -0.09 °C | 7.31 °C | -1.65 °C | 1.76 °C | 2.90 °C | -3.87 °C | -2.05 °C | -4.10 °C | 3.53 °C | -4.50 °C | -4.15 °C | -3.02 °C | about 5 °C | -5.7 °C | 7.84 °C | 3.91 °C | translation efficiency with the (AC)15 control ([1]; silvestrol concentrations in the CC50 range): reduction of translation efficiency; firefly luciferase activity / translation efficiency with the (AG)15 plasmid [1, 8]: strong reduction; CC50 (in vitro [3]; 24 h incubation): 11.5 nM; CC50 (in vitro [3]; 48 h incubation): 7.3 nM; translation efficiency with the (AC)15 control [5]: already visible at the half CC50 concentration; firefly luciferase activity / translation efficiency with the (AG)15 plasmid [5, 8]: strong reduction; RVFV L-segment RNA levels (RVFV Clone 13): strong reduction; IC50 (Aag2 cells; 24 h): 36.7 nM; IC50 (Aag2 cells; 48 h): 45.3 nM; IC50 (S2 cells; 24 h): 6.35 nM; IC50 (S2 cells; 48 h): 6.15 nM; RVFV L-segment RNA levels (RVFV MP-12): strong reduction; cytotoxicity (A549 cells): No cytotoxicity; CC50 (in vitro [6]; 24 h incubation): 55.6 nM; CC50 (in vitro [6]; 48 h incubation): 49 nM; ∆Tm ([7]; RNA oligo (UA)5): -5.16 °C; ∆Tm ([7]; RNA oligo (UC)5): -5.73 °C; ∆Tm ([7]; RNA oligo (UG)5): -0.68 °C |
| CONC(=O)C1C(O)C2(O)c3c(OC)cc(OC)cc3OC2(c2ccc(OC)cc2)C1c1ccccc1 (stereo not drawn) [CR-31-B (-)] | -0.43 °C | 6.55 °C | 5.81 °C | -0.71 °C | -1.11 °C | 5.59 °C | -4.66 °C | 0.74 °C | 1.88 °C | -4.09 °C | -2.27 °C | -4.03 °C | 2.81 °C | -4.53 °C | -4.59 °C | -2.82 °C | ~3 °C | -4.82 °C | 7.50 °C | 3.74 °C | ∆Tm ([2]; RNA oligo (UA)5): -4.43 °C; ∆Tm ([7]; RNA oligo (UA)5): -4.65 °C; ∆Tm ([7]; RNA oligo (UC)5): -5.44 °C; ∆Tm ([7]; RNA oligo (UG)5): -0.09 °C |
